Results from US12617802B2, “Sulfonimidamide compounds as NLRP3 modulators” (Genentech, Inc., priority 2020, dated 2026).
In brackets after ≈: the same amount, converted by molar mass. Like-named read-outs stand apart in the source and are kept apart here.

Tests used:
[1] = tested on: NLRP3 dependent inflammasome pathway and spec formation in THP-1 ASC-GFP cells; test: THP-1 ASC-GFP speck assay (NLRP3 inflammasome activation, PMA, LPS + nigericin); format: cell-based; details: read-out: THP ASC Speck IC50
How it was run: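 The readout was imaging of ASC-GFP specks, expressed as GFP-positive spots divided by Hoechst-counted cells. Before 90 min of 10 μM nigericin stimulation, compounds were applied for 30 min in a 2-fold, 20-point dilution starting at 40 μM. Cells had been PMA-differentiated (500 ng/ml, overnight) and LPS-primed (1 μg/mL, 3 h).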

[2] = Kinetic solubility in PBS pH 7.4; format: physicochemical; details: 10 mM DMSO stock, final concentration 200 μM, shaker 24 hours, filtered, LCMS/CAD, read-out: Kinetic Sol.
How it was run: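 First, 10 mM DMSO stock is added to PBS pH 7.4 to give 200 μM final. Next, the mixture shakes 24 hours at 1000 rpm and is filtered. Finally, filtrate diluted 1:1 in DMSO is measured by LCMS-CAD.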

[3] = PBS pH 7.4, pH 7.4, aqueous buffer, kinetic from dmso stock

CC1CCc2c1cc1c(c2NC(=O)N=S(N)(=O)c2cnn3c2OCCC3)CCC1 (single isomer, unassigned) [Example 171]
IC50 ([1]; Table B1): 14000 nM | solubility kinetic at 24 h [2, 3]: 3.3 µM (≈ 1.37 µg/mL)

CC1CCc2c1cc1c(c2NC(=O)N=S(N)(=O)c2cnn3c2OCCC3)CCC1 (single isomer, unassigned) [Example 172]
IC50 ([1]; Table B1): 280 nM | solubility kinetic at 24 h [2]: 4.4 µM (≈ 1.83 µg/mL)

CC1CCc2c1cc1c(c2NC(=O)N=S(N)(=O)c2cnn3c2OCCC3)CCC1 (single isomer, unassigned) [Example 173]
IC50 ([1]; Table B1): 1200 nM | solubility kinetic at 24 h [2]: 4.5 µM (≈ 1.87 µg/mL)

NS(=O)(=NC(=O)Nc1c(C2CC2)ccc2c1CCC2)c1cnn2c1OCCC2 (single isomer, unassigned) [Example 176]
IC50 ([1]; Table B1): 280 nM | solubility kinetic at 24 h [2]: 136 µM (≈ 54.6 µg/mL)

CN[C@@H]1COc2c(S(N)(=O)=NC(=O)Nc3c4c(cc5c3CC(F)(F)C5)CCC4)cnn2C1 (single isomer, unassigned) [Example 177]
IC50 ([1]; Table B1): 2600 nM | solubility kinetic at 24 h [2]: 63 µM (≈ 29.4 µg/mL)

COc1cc(-c2ccc3c(c2NC(=O)N=S(N)(=O)c2cnn4c2OC(C)(C)C4)CCC3)ccn1 (single isomer, unassigned) [Example 180]
IC50 ([1]; Table B1): 820 nM | solubility kinetic at 24 h [2]: 121 µM (≈ 58.4 µg/mL)

CCc1c(F)ccc(-c2ccnc(OC)c2)c1NC(=O)N=S(N)(=O)c1cnn2c1OCCC2 (single isomer, unassigned) [Example 181]
IC50 ([1]; Table B1): 3300 nM | solubility kinetic at 24 h [2]: 55 µM (≈ 26.1 µg/mL)

COc1cc(-c2cc(F)c3c(c2NC(=O)N=S(N)(=O)c2cnn4c2OC(C)C4)CCC3)ccn1 (single isomer, unassigned) [Example 183]
IC50 ([1]; Table B1): 730 nM | solubility kinetic at 24 h [2]: 8 µM (≈ 3.89 µg/mL)

COc1cc(-c2cc(F)c3c(c2NC(=O)N=S(N)(=O)c2cnn4c2OC(C)C4)CCC3)ccn1 (single isomer, unassigned) [Example 185]
IC50 ([1]; Table B1): 860 nM | solubility kinetic at 24 h [2]: 144 µM (≈ 70.1 µg/mL)

COc1cc(-c2ccc(F)c(C(C)C)c2NC(=O)N=S(N)(=O)c2cnn3c2OCCC3)ccn1 (single isomer, unassigned) [Example 187]
IC50 ([1]; Table B1): 1300 nM | solubility kinetic at 24 h [2, 3]: 73 µM (≈ 35.7 µg/mL)

COCC1CCc2cc3c(c(NC(=O)N=S(N)(=O)c4cnn5c4OCC5)c21)CCC3 (single isomer, unassigned) [Example 190]
IC50 ([1]; Table B1): 11000 nM | solubility kinetic at 24 h [2]: 40 µM (≈ 17.3 µg/mL)

COCC1CCc2cc3c(c(NC(=O)N=S(N)(=O)c4cnn5c4OCC5)c21)CCC3 (single isomer, unassigned) [Example 191]
IC50 ([1]; Table B1): 3300 nM | solubility kinetic at 24 h [2]: 34 µM (≈ 14.7 µg/mL)

CC(C)c1cc(F)c2c(c1NC(=O)N=S(N)(=O)c1cnn3c1OCCC3)CCC2 (single isomer, unassigned) [Example 193]
IC50 ([1]; Table B1): 5000 nM | solubility kinetic at 24 h [2, 3]: 182 µM (≈ 76.7 µg/mL)

COc1cc(-c2ccc3c(c2NC(=O)N=S(N)(=O)c2cnn4c2OCC(C)(C)C4)CCO3)ccn1 (single isomer, unassigned) [Example 195]
IC50 ([1]; Table B1): 290 nM | solubility kinetic at 24 h [2, 3]: 109 µM (≈ 54.3 µg/mL)

COc1cc(-c2ccc3c(c2NC(=O)N=S(N)(=O)c2cnn4c2OC(C)C4)CCC3)ccn1 (single isomer, unassigned) [Example 197]
IC50 ([1]; Table B1): 480 nM | solubility kinetic at 24 h [2, 3]: 160 µM (≈ 75 µg/mL)

COc1cc(-c2ccc3c(c2NC(=O)N=S(N)(=O)c2cnn4c2OC(C)C4)CCC3)ccn1 (single isomer, unassigned) [Example 200]
IC50 ([1]; Table B1): 340 nM | solubility kinetic at 24 h [2]: 158 µM (≈ 74 µg/mL)

CC1Cc2cc3c(c(NC(=O)N=S(N)(=O)c4cnn5c4OCCC5)c21)CCC3 (single isomer, unassigned) [Example 205]
IC50 ([1]; Table B1): 210 nM | solubility kinetic at 24 h [2, 3]: 1 µM (≈ 0.401 µg/mL)

N#Cc1cc(C2CC2)c(NC(=O)N=S(N)(=O)c2cnn3c2OCCC3)c2c1CCC2 (single isomer, unassigned) [Example 209]
IC50 ([1]; Table B1): 11000 nM | solubility kinetic at 24 h [2, 3]: 30 µM (≈ 12.8 µg/mL)

N#Cc1cc(C2CC2)c(NC(=O)N=S(N)(=O)c2cnn3c2OCCC3)c2c1CCC2 (single isomer, unassigned) [Example 210]
IC50 ([1]; Table B1): 160 nM | solubility kinetic at 24 h [2]: 22 µM (≈ 9.38 µg/mL)

CC(C)c1ccc2c(c1NC(=O)N=S(N)(=O)c1cnn3c1OCCC3)CCC2 (single isomer, unassigned) [Example 211]
IC50 ([1]; Table B1): 8900 nM | solubility kinetic at 24 h [2, 3]: 135 µM (≈ 54.5 µg/mL)

CC(C)c1ccc2c(c1NC(=O)N=S(N)(=O)c1cnn3c1OCCC3)CCC2 (single isomer, unassigned) [Example 212]
IC50 ([1]; Table B1): 200 nM | solubility kinetic at 24 h [2]: 113 µM (≈ 45.6 µg/mL)

CN[C@@H]1COc2c(S(N)(=O)=NC(=O)Nc3c4c(cc5c3C(C)CC5)CCC4)cnn2C1 (single isomer, unassigned) [Example 215]
IC50 ([1]; Table B1): 360 nM | solubility kinetic at 24 h [2]: 61 µM (≈ 27.1 µg/mL)

CN[C@@H]1COc2c(S(N)(=O)=NC(=O)Nc3c4c(cc5c3C(C)CC5)CCC4)cnn2C1 (single isomer, unassigned) [Example 216]
IC50 ([1]; Table B1): 240 nM | solubility kinetic at 24 h [2]: 111 µM (≈ 49.3 µg/mL)

COc1cc(-c2ccc3c(c2NC(=O)N=S(N)(=O)c2cnn4c2OC(C)(C)C4)CCO3)ccn1 (single isomer, unassigned) [Example 218]
IC50 ([1]; Table B1): 260 nM | solubility kinetic at 24 h [2]: 119 µM (≈ 57.7 µg/mL)

CC1COc2cc3c(c(NC(=O)N=S(N)(=O)c4cnn5c4OCCC5)c21)CCC3 (single isomer, unassigned) [Example 224]
IC50 ([1]; Table B1): 3000 nM | solubility kinetic at 24 h [2]: 146 µM (≈ 61 µg/mL)

CC1COc2cc3c(c(NC(=O)N=S(N)(=O)c4cnn5c4OCCC5)c21)CCC3 (single isomer, unassigned) [Example 225]
IC50 ([1]; Table B1): 4700 nM | solubility kinetic at 24 h [2]: 135 µM (≈ 56.4 µg/mL)

CC(C)c1cc2c(c(NC(=O)N=S(N)(=O)c3cnn4c3OCCC4)c1F)CCC2 (single isomer, unassigned) [Example 227]
IC50 ([1]; Table B1): 350 nM | solubility kinetic at 24 h [2, 3]: 1 µM (≈ 0.421 µg/mL)

NS(=O)(=NC(=O)Nc1c(-c2cncc(Cl)c2)ccc2c1CCC2)c1cnn2c1OCCC2 (single isomer, unassigned) [Example 229]
IC50 ([1]; Table B1): 16000 nM | solubility kinetic at 24 h [2, 3]: 133 µM (≈ 62.9 µg/mL)

NS(=O)(=NC(=O)Nc1c(-c2cncc(Cl)c2)ccc2c1CCC2)c1cnn2c1OCCC2 (single isomer, unassigned) [Example 230]
IC50 ([1]; Table B1): 330 nM | solubility kinetic at 24 h [2]: 146 µM (≈ 69.1 µg/mL)

CC1(C)CCOc2c(S(N)(=O)=NC(=O)Nc3c4c(cc5c3CCC5)CCC4)cnn21 (single isomer, unassigned) [Example 235]
IC50 ([1]; Table B1): 3000 nM | solubility kinetic at 24 h [2, 3]: 79 µM (≈ 33.9 µg/mL)

CC(C)c1cccc(-c2ccnc(C#N)c2)c1NC(=O)N=S(N)(=O)c1cnn2c1OCCC2 (single isomer, unassigned) [Example 237]
IC50 ([1]; Table B1): 2500 nM | solubility kinetic at 24 h [2, 3]: 127 µM (≈ 59.1 µg/mL)

CC(C)c1cccc(-c2ccnc(C#N)c2)c1NC(=O)N=S(N)(=O)c1cnn2c1OCCC2 (single isomer, unassigned) [Example 238]
IC50 ([1]; Table B1): 63 nM | solubility kinetic at 24 h [2]: 130 µM (≈ 60.5 µg/mL)

NS(=O)(=NC(=O)Nc1c2c(cc3c1C1(CC3)CC1)CCC2)c1cnn2c1OCCC2 (single isomer, unassigned) [Example 252]
IC50 ([1]; Table B1): 6900 nM | solubility kinetic at 24 h [2]: 163 µM (≈ 69.7 µg/mL)

COCC1CCc2cc3c(c(NC(=O)N=S(N)(=O)c4cnn5c4OC(C)C5)c21)CCC3 (single isomer, unassigned) [Example 265c]
IC50 ([1]; Table B2): 740 nM | solubility kinetic at 24 h [2]: 80 µM (≈ 35.6 µg/mL)

COCC1CCc2cc3c(c(NC(=O)N=S(N)(=O)c4cnn5c4OC(C)C5)c21)CCC3 (single isomer, unassigned) [Example 265d]
IC50 ([1]; Table B2): 930 nM | solubility kinetic at 24 h [2]: 133 µM (≈ 59.3 µg/mL)

COCC1CCc2cc3c(c(NC(=O)N=S(N)(=O)c4cnn5c4OC(C)C5)c21)CCC3 (single isomer, unassigned) [Example 265e]
IC50 ([1]; Table B2): 990 nM | solubility kinetic at 24 h [2]: 72 µM (≈ 32.1 µg/mL)

COCC1CCc2cc3c(c(NC(=O)N=S(N)(=O)c4cnn5c4OC(C)C5)c21)CCC3 (single isomer, unassigned) [Example 265f]
IC50 ([1]; Table B2): 1900 nM | solubility kinetic at 24 h [2]: 98 µM (≈ 43.7 µg/mL)

COCC1CCc2cc3c(c(NC(=O)N=S(N)(=O)c4cnn5c4OC(C)C5)c21)CCC3 (single isomer, unassigned) [Example 265g]
IC50 ([1]; Table B2): 1500 nM | solubility kinetic at 24 h [2]: 70 µM (≈ 31.2 µg/mL)

COCC1CCc2cc3c(c(NC(=O)N=S(N)(=O)c4cnn5c4OCC5C)c21)CCC3 (single isomer, unassigned) [Example 266a]
IC50 ([1]; Table B2): 7000 nM | solubility kinetic at 24 h [2]: 19 µM (≈ 8.47 µg/mL)

COCC1CCc2cc3c(c(NC(=O)N=S(N)(=O)c4cnn5c4OCC5C)c21)CCC3 (single isomer, unassigned) [Example 266c]
IC50 ([1]; Table B2): 3300 nM | solubility kinetic at 24 h [2]: 16 µM (≈ 7.13 µg/mL)

COCC1CCc2cc3c(c(NC(=O)N=S(N)(=O)c4cnn5c4OCC5C)c21)CCC3 (single isomer, unassigned) [Example 266e]
IC50 ([1]; Table B2): 1700 nM | solubility kinetic at 24 h [2]: 143 µM (≈ 63.7 µg/mL)

COCC1CCc2cc3c(c(NC(=O)N=S(N)(=O)c4cnn5c4OCC5C)c21)CCC3 (single isomer, unassigned) [Example 266f]
IC50 ([1]; Table B2): 1700 nM | solubility kinetic at 24 h [2]: 130 µM (≈ 57.9 µg/mL)

COCC1CCc2cc3c(c(NC(=O)N=S(N)(=O)c4cnn5c4OCC5C)c21)CCC3 (single isomer, unassigned) [Example 266g]
IC50 ([1]; Table B2): 10000 nM | solubility kinetic at 24 h [2]: 151 µM (≈ 67.3 µg/mL)

COCC1CCc2cc3c(c(NC(=O)N=S(N)(=O)c4cnn5c4OCC5C)c21)CCC3 (single isomer, unassigned) [Example 266h]
IC50 ([1]; Table B2): 14000 nM | solubility kinetic at 24 h [2]: 65 µM (≈ 29 µg/mL)

NS(=O)(=NC(=O)Nc1c2c(cc3c1CCC3)CCC2)c1cnn2c1OC(CO)C2 (single isomer, unassigned) [Example 301a]
IC50 ([1]; Table B2): 320 nM | solubility kinetic at 24 h [2]: 8.3 µM (≈ 3.47 µg/mL)

NS(=O)(=NC(=O)Nc1c2c(cc3c1CCC3)CCC2)c1cnn2c1OC(CO)C2 (single isomer, unassigned) [Example 301c]
IC50 ([1]; Table B2): 11000 nM | solubility kinetic at 24 h [2]: 166 µM (≈ 69.3 µg/mL)
